Assay results taken from PubChem BioAssay AID1963828 (Molecular Pharmacology Branch, DTP, NCI, 2024).
Values joined by “and” are separate entries in the source; they are usually repeats but may differ in a detail not shown here. Equal entries are not always repeated.

Tested on: 991263-137-R1-J2-PDC complex spheroid viability
Assay: Anticancer human tumor 991263-137-R1-J2-PDC patient-derived colon adenocarcinoma cell line growth inhibition [POLQ]
Settings: for viability, T/C: stronger effect = lower value
Description: Multicellular complex tumor spheroid response to Polymerase (POL) inhibitors (novobiocin, ART-558, RP6685) in combination with a variety of drugs and investigational agents in selected tumor cell lines
The POL inhibitors (novobiocin, ART-558, and RP6685) were evaluated both individually and in combination with standard of care and investigational anticancer small molecules within a complex spheroid model of solid tumors. . Complex spheroids include a stromal component modeled by human endothelial cells (HUVEC) and fibroblasts modeled by human mesenchymal stem cells (MSCs). The concentration ranges selected for each drug and investigational agent were based upon clinically achievable concentrations if the clinical Cmax of the agent was known.
Compounds. The drugs and investigational agents: novobiocin (NSC847541), ART-558 (NSC835418), RP-6685 (NSC848927), peposertib (NSC802822), ceralasertib (NSC780249), elimusertib (NSC800525), camonsertib (NSC841442), AZD-1390 (NSC803789), olaparib (NSC753686), talazoparib (NSC767125), rucaparib (NSC756644), sotorasib (NSC818433), MRTX-1133 (NSC836407), SN-38 (NSC673596), topotecan (NSC609699), epotoside (NSC141540), doxorubicin (NSC123127), gemcitabine (NSC613327), 5-fluorouracil (NSC19893), paclitaxel (NSC125973), vemurafenib (NSC761431), MSA-2 (NSC828583), SN-011 (NSC837082), adavosertib (NSC754352), prexasertib (NSC758257), carboplatin (NSC241240) and oxaliplatin (NSC266046), were obtained from the National Cancer Institute (NCI) Developmental Therapeutics Program Chemical Repository (21). The FDA-approved anticancer drug set is available from the Developmental Therapeutics Program at https://dtp.cancer.gov/organization/dscb/obtaining/. […] The stock solutions were prepared in dimethyl sulfoxide (DMSO, Sigma-Aldrich, St. Louis, MO, cat. D2650), except for the platinum compounds which were prepared in saline (Quality Biological, Gaithersburg, MD, cat. 114-055-101), at 800-fold the tested concentration and stored at -70 degrees C prior to their use. All drugs and investigational agents were tested over a range starting from a high concentration at or near the clinical Cmax and decreasing in half-log increments. If the clinical Cmax for an agent had not been determined, the highest concentration tested was 10 microM, except for SN-38, which was tested at a high concentration of 1 microM.
Cell Culture. All cells were maintained in an incubator at 37 degrees C and 5% CO2 with 95% humidity. The PDC lines were cultured according to standard operating procedures established by the NCI PDMR (https://pdmr.cancer.gov). Table 3 of the manuscript, lists the cell lines along with the number of the three cell types plated to form the mct-spheroids and media for tumor cell growth. After thawing, all PDC lines, except 997537-175-T-J1-PDC and 415267-285-R-J2-PDC, were cultured in Matrigel-coated flasks prepared with a working solution of 1X Ham's F-12 nutrient mix, without supplementation (Thermo Fisher Scientific, cat. 11765054), 100 U/mL penicillin-streptomycin (Thermo Fisher Scientific, cat. 15140122), and 2.5% Matrigel (Corning Inc., Corning, NY, cat. 354248) for the first three passages. The two PDC lines 997537-175-T-J1-PDC and 415267-285-R-J2-PDC were cultured on uncoated flasks. The 857933-349-R-J2-PDC line was cultured in 6C/Colon 1B media containing advanced DMEM/F-12 (Thermo Fisher Scientific, cat. 12634028), 10 mM HEPES (Thermo Fisher Scientific, cat. 15630080), 1X GlutaMAX supplement (Thermo Fisher Scientific, cat. 35050061), 0.1 mg/mL primocin (InvivoGen, San Diego, CA, cat. ant-pm-2), 10% defined fetal bovine serum, heat inactivated (HyClone Laboratories Inc., Logan, UT, cat. SH30070.03HI), 50% L-WRN conditioned media (ATCC, cat. CRL-3276), 1.25 mM N-Acetyl-L-cysteine (Sigma-Aldrich, cat. A9165), 10 mM nicotinamide (Sigma-Aldrich, cat. N0636), 1X B-27 supplement (Thermo Fisher Scientific, cat. 17504044), 1X N-2 supplement (Thermo Fisher Scientific, cat. […]
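Also: spheroids exposed to compounds for 7 days before readout.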
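For viability, T/C in this document: 100% = DMSO vehicle control viability.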

## Nc1ccc(C#CCN(C(=O)Cc2ncc(C(F)(F)F)cc2C(F)(F)F)c2ccc(F)cc2)nn1
Compound 0.0316 µM
  viability, T/C: 100% [middle of 13 runs]
Compound 0.1 µM
  viability, T/C: 101% [middle of 13 runs]
Compound 0.316 µM
  viability, T/C: 99.3% [middle of 13 runs]
Compound 1 µM
  viability, T/C: 102% [middle of 13 runs]
Compound 3.16 µM
  viability, T/C: 103% [middle of 13 runs]
Compound 10 µM
  viability, T/C: 101% [middle of 13 runs]
Compound alone, run of 01/19/2024
  IC50: > 10 µM

## CC1COCCN1c1cc(C2(S(C)(=N)=O)CC2)nc(-c2ccnc3[nH]ccc23)n1 (stereo unspecified)
Compound 0.0316 µM
  viability, T/C: 107% and 98.9% and 98.6%
Compound 0.1 µM
  viability, T/C: 96.1% and 109% and 104%
Compound 0.316 µM
  viability, T/C: 100% and 94.6% and 92.8%
Compound 1 µM
  viability, T/C: 103% and 101% and 95.1%
Compound 3.16 µM
  viability, T/C: 83% and 97.9% and 103%
Compound 10 µM
  viability, T/C: 75.5% and 93.9% and 74.7%
Curve of compound
  IC50: > 10 µM

## O=C(Nc1ccc(O)c(NS(=O)(=O)c2ccc(F)cc2)c1)c1ccc(-c2ccccc2)cc1
Compound 0.0316 µM
  viability, T/C: 101% (2×) and 109%
Compound 0.1 µM
  viability, T/C: 98.5% and 91.8% and 94.6%
Compound 0.316 µM
  viability, T/C: 113% and 109% and 100%
Compound 1 µM
  viability, T/C: 97.6% and 98.6% and 105%
Compound 3.16 µM
  viability, T/C: 96.9% and 88.3% and 105%
Compound 10 µM
  viability, T/C: 101% and 97.1% and 79.9%
Curve of compound
  IC50: > 10 µM

## CC1COCCN1c1cc(C2(O)CC3CCC(C2)O3)c2cnn(-c3ccn[nH]3)c2n1 (stereo unspecified)
Compound 0.0316 µM
  viability, T/C: 103% and 87.7% and 99%
Compound 0.1 µM
  viability, T/C: 95.7% and 94% and 86.5%
Compound 0.316 µM
  viability, T/C: 88.2% and 74.1% and 73.4%
Compound 1 µM
  viability, T/C: 56.8% and 58.5% and 54.9%
Compound 3.16 µM
  viability, T/C: 36.5% and 33.8% and 36.9%
Compound 10 µM
  viability, T/C: 30.4% and 26.9% and 29.3%
Curve of compound
  IC50: 1.5 µM and 1.41 µM and 1.35 µM

## COc1cccc(OCCCN)c1-c1cc(Nc2cnc(C#N)cn2)n[nH]1
Compound 0.00316 µM
  viability, T/C: 89.6% and 99.7% and 88.6%
Compound 0.01 µM
  viability, T/C: 98.1% and 107% and 85.7%
Compound 0.0316 µM
  viability, T/C: 101% and 94.9% and 94.6%
Compound 0.316 µM
  viability, T/C: 43.2% and 53.1% and 61.2%
Compound 1 µM
  viability, T/C: 40.1% and 42.8% and 46.3%
Curve of compound
  IC50: 0.0909 µM and 0.464 µM and 0.75 µM

## COc1cc2cc(C(=O)CCC(=O)O)sc2cc1OC + COC1C(OC(N)=O)C(O)C(Oc2ccc3c(O)c(NC(=O)c4ccc(O)c(CC=C(C)C)c4)c(=O)oc3c2C)OC1(C)C
Curve of first compound, second compound 0.0316 µM
  IC50: > 10 µM
Curve of first compound, second compound 0.1 µM
  IC50: > 10 µM
Curve of first compound, second compound 0.316 µM
  IC50: > 10 µM
Curve of first compound, second compound 1 µM
  IC50: > 10 µM
Curve of first compound, second compound 3.16 µM
  IC50: > 10 µM
Curve of first compound, second compound 10 µM
  IC50: > 10 µM
Second compound 0.0316 µM, first compound 0.0316 µM
  viability, T/C: 97%
Second compound 0.0316 µM, first compound 0.1 µM
  viability, T/C: 109%
Second compound 0.0316 µM, first compound 0.316 µM
  viability, T/C: 103%
Second compound 0.0316 µM, first compound 1 µM
  viability, T/C: 83.6%
Second compound 0.0316 µM, first compound 3.16 µM
  viability, T/C: 89.7%
Second compound 0.0316 µM, first compound 10 µM
  viability, T/C: 95.1%
Second compound 0.1 µM, first compound 0.0316 µM
  viability, T/C: 99.9%
Second compound 0.1 µM, first compound 0.1 µM
  viability, T/C: 105%
Second compound 0.1 µM, first compound 0.316 µM
  viability, T/C: 99.7%
Second compound 0.1 µM, first compound 1 µM
  viability, T/C: 90.4%
Second compound 0.1 µM, first compound 3.16 µM
  viability, T/C: 116%
Second compound 0.1 µM, first compound 10 µM
  viability, T/C: 83%
Second compound 0.316 µM, first compound 0.0316 µM
  viability, T/C: 119%
Second compound 0.316 µM, first compound 0.1 µM
  viability, T/C: 130%
Second compound 0.316 µM, first compound 0.316 µM
  viability, T/C: 112%
Second compound 0.316 µM, first compound 1 µM
  viability, T/C: 110%
Second compound 0.316 µM, first compound 3.16 µM
  viability, T/C: 94%
Second compound 0.316 µM, first compound 10 µM
  viability, T/C: 96.8%
Second compound 1 µM, first compound 0.0316 µM
  viability, T/C: 108%
Second compound 1 µM, first compound 0.1 µM
  viability, T/C: 107%
Second compound 1 µM, first compound 0.316 µM
  viability, T/C: 115%
Second compound 1 µM, first compound 1 µM
  viability, T/C: 110%
Second compound 1 µM, first compound 3.16 µM
  viability, T/C: 91.9%
Second compound 1 µM, first compound 10 µM
  viability, T/C: 90.2%
Second compound 3.16 µM, first compound 0.0316 µM
  viability, T/C: 114%
Second compound 3.16 µM, first compound 0.1 µM
  viability, T/C: 97.9%
Second compound 3.16 µM, first compound 0.316 µM
  viability, T/C: 90.2%
Second compound 3.16 µM, first compound 1 µM
  viability, T/C: 118%
Second compound 3.16 µM, first compound 3.16 µM
  viability, T/C: 121%
Second compound 3.16 µM, first compound 10 µM
  viability, T/C: 80.5%
Second compound 10 µM, first compound 0.0316 µM
  viability, T/C: 117%
Second compound 10 µM, first compound 0.1 µM
  viability, T/C: 112%
Second compound 10 µM, first compound 0.316 µM
  viability, T/C: 109%
Second compound 10 µM, first compound 1 µM
  viability, T/C: 97.7%
Second compound 10 µM, first compound 3.16 µM
  viability, T/C: 126%
Second compound 10 µM, first compound 10 µM
  viability, T/C: 88.7%
